Laboratory results from article PMC6100415, “Hepatic Metabolism of Sakuranetin and Its Modulating Effects on Cytochrome P450s and UDP-Glucuronosyltransferases” (Molecules : A Journal of Synthetic Chemistry and Natural …, 2018).
Where two headings read alike, the source gives them in different places.

Experiments:
Format in all cases: in vitro ADME
CYP1A2 = molecular target: T1, CYP1A2 (Homo sapiens, UniProt P05177); assay: CYP inhibition in human liver microsomes, phenacetin O-deethylation (PCOD); conditions: pH 7.4, probe phenacetin (O-deethylation, PCOD)
T1 sequence (P05177 1-516): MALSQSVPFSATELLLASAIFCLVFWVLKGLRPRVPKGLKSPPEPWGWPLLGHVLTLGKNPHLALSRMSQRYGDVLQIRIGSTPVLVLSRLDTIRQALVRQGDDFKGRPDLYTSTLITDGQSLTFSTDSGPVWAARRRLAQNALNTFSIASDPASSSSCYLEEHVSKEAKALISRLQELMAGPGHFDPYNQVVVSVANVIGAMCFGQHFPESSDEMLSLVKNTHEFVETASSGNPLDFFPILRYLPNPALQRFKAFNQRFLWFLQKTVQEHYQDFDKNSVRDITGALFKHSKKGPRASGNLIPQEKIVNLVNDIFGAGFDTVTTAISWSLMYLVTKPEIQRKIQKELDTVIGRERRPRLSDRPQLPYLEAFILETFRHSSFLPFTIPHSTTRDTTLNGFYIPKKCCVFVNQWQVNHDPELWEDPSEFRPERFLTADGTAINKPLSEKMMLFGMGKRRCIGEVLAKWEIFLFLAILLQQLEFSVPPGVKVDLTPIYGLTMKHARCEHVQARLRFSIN
Description: (§1) The DAD was set at 280 nm.

UGT1A3 = molecular target: T2, UGT1A3 (Homo sapiens, UniProt P35503); assay: UGT inhibition in human liver microsomes, chenodeoxycholic acid 24-glucuronidation (CDCAG); conditions: pH 7.4, probe chenodeoxycholic acid (200 μM)
T2 construct: The typical incubation mixture contained human liver microsomes (0.5 mg/mL) along with SKN (10 μM); tissue BD Gentest; host or cells: human liver microsomes
T2 sequence (P35503 29-534): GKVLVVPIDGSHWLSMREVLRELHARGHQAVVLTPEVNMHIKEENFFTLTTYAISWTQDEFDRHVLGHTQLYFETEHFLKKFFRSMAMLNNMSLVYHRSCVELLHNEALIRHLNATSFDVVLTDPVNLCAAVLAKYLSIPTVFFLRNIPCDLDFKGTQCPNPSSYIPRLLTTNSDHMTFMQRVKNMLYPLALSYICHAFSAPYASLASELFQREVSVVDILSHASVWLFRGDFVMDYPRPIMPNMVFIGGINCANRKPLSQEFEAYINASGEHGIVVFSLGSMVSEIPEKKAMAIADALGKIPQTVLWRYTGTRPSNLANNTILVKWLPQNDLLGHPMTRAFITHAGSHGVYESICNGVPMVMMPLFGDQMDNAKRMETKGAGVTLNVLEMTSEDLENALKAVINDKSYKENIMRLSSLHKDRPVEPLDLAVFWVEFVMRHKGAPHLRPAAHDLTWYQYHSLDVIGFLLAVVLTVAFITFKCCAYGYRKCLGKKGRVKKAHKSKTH
Experimental: (§2) The formation of a glucuronide conjugate from an isozyme-specific substrate (200 μM, Table 5) was examined to determine UGT activity levels in human liver microsomes. The typical incubation mixture contained human liver microsomes (0.5 mg/mL) along with SKN (10 μM), and MgCl2 (10 mM) in 50 mM Tris-HCl buffer (pH 7.4). The metabolic reaction was initiated by adding UPDGA (2 mM) and stopped by adding an equal volume of ice-cold methanol. […] The conditions used for the operation and analysis of the HPLC-DAD and LC-ESI-MS are provided in the Supplementary Materials and Table S3.
(§3) The solvent flow rate was set at 0.2 mL/min, and the column temperature was set at 35 °C. The LTQ instrument was operated in negative ion electron spray mode at an ion spray voltage of −4.2 kV and a source temperature of 275 °C. The sheath gas flow rate was 35 arb, and the aux gas flow rate was 5 arb. The MS conditions used to detect glucuronides via selected ion monitoring scan mode are summarized in Supplementary Materials Table S3.

CYP2D6 = CYP2D6 (Homo sapiens, UniProt P10635); assay: CYP inhibition in human liver microsomes, dextromethorphan O-demethylation (DEXOD); conditions: pH 7.4, probe dextromethorphan (O-demethylation, DEXOD)
Description: as §1

UGT1A9 = molecular target: T3, UGT1A9 (Homo sapiens, UniProt O60656); assay: UGT inhibition in human liver microsomes, mycophenolic acid O-glucuronidation (MPAG); conditions: for inhibition at 10 μM: human, pH 7.4, probe mycophenolic acid (200 μM), O-glucuronidation (MPAG), UGT1A9, MPAG
T3 construct: The typical incubation mixture contained human liver microsomes (0.5 mg/mL) along with SKN (10 μM); tissue BD Gentest; host or cells: human liver microsomes
T3 sequence (O60656 26-530): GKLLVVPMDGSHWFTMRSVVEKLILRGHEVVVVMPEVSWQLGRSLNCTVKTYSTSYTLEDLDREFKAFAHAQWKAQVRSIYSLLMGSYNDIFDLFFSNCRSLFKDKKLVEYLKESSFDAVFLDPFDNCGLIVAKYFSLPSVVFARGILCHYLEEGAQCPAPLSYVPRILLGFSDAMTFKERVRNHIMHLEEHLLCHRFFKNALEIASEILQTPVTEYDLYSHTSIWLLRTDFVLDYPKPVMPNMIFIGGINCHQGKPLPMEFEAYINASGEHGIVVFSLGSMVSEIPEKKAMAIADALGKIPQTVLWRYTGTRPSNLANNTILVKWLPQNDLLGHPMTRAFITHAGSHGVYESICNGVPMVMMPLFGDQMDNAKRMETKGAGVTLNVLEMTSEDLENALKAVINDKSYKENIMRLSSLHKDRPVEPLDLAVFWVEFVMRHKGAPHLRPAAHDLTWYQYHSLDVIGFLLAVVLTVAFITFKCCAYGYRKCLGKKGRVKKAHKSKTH
Experimental: as §2, §3

UGT1A4 = molecular target: T4, UGT1A4 (Homo sapiens, UniProt P22310); assay: UGT inhibition in human liver microsomes, trifluoperazine N-glucuronidation (TFPG); conditions: pH 7.4, probe trifluoperazine (200 μM)
T4 construct: The typical incubation mixture contained human liver microsomes (0.5 mg/mL) along with SKN (10 μM); tissue BD Gentest; host or cells: human liver microsomes
T4 sequence (P22310 29-534): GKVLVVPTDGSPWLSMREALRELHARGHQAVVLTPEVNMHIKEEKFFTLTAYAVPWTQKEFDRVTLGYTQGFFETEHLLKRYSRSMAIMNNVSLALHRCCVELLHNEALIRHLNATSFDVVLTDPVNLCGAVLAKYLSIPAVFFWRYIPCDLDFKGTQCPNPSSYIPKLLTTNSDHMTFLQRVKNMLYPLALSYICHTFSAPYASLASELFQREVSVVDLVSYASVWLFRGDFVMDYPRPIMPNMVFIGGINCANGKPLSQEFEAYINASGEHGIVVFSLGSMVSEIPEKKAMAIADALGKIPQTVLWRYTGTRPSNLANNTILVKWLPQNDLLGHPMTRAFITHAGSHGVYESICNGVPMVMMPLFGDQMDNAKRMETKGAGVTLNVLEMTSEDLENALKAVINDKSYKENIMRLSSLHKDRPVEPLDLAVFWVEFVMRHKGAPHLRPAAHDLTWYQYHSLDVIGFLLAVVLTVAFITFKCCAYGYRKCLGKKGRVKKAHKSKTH
Experimental: as §2, §3

[1] = liver microsomes, 200 μM, SKN 10 μM, 15 min pre-incubation, read-out: % Inhibition in Pre-Incubation
[2] = liver microsomes, 200 μM, SKN 10 μM, human liver microsomes, read-out: % Inhibition in Co-Incubation
[3] = SKN 10 μM, 15 min pre-incubation, read-out: % Inhibition in Pre-Incubation
[4] = SKN 10 μM, read-out: % Inhibition in Co-Incubation
[5] = human liver microsomes, 200 µM, inhibitor 10 M [sic], human liver microsomes 0.5 mg/mL, read-out: Inhibition (%)
[6] = inhibitor 10 µM, human liver microsomes 0.5 mg/mL, read-out: Inhibition (%)
[7] = human liver microsomes, inhibitor 10 µM, human liver microsomes 0.5 mg/mL, read-out: Inhibition (%)

Chain of CYP2D6 (P10635 whole entry): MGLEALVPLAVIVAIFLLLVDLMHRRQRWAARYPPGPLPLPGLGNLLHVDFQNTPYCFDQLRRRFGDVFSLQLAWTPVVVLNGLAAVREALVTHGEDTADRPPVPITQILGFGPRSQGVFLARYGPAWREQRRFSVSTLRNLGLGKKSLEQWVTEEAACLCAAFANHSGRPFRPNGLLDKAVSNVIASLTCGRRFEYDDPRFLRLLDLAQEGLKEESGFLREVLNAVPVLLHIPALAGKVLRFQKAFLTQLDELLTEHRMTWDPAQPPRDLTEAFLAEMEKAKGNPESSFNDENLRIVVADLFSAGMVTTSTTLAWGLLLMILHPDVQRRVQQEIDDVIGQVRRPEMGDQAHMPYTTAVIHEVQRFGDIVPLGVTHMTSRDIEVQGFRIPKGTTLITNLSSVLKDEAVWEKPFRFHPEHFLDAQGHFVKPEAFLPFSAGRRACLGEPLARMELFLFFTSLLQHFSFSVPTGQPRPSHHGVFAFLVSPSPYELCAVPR

Row | inhibition at 60 min, 10 µM (CYP1A2; [1]) [%] | inhibition at 60 min, 10 µM (CYP1A2; [2]) [%] | inhibition at 10 μM (UGT1A3; [3]) [%] | inhibition at 10 μM (UGT1A3; [4]) [%] | inhibition at 60 min, 10 µM (CYP2D6; [1]) [%] | inhibition at 60 min, 10 µM (CYP2D6; [2]) [%] | fold higher inhibition of UGT1A9 in the pre-incubation sample than in the co-incubation sample (UGT1A9; SKN, human liver microsomes) [fold] | inhibition at 10 μM (UGT1A9; human liver microsomes, SKN 10 μM, 15 min pre-incubation, read-out: % Inhibition in Pre-Incubation) [%] | inhibition at 10 μM (UGT1A9; human liver microsomes, SKN 10 μM, human liver microsomes, read-out: % Inhibition in Co-Incubation) [%] | mode of UGT1A9 inhibition (UGT1A9; pre-incubation 15 min, 10-fold dilution) | inhibition at 10 μM (UGT1A4; [3]) [%] | inhibition at 10 μM (UGT1A4; [4]) [%] | inhibition at 60 min, 10 µM (CYP1A2; [5]) [%] | inhibition at 10 μM (UGT1A3; [6]) [%] | inhibition at 60 min, 10 µM (CYP2D6; [5]) [%] | inhibition at 10 μM (UGT1A9; [7]) [%] | inhibition at 10 μM (UGT1A4; [6]) [%] | SMILES
1 | 1.5 ± 2.1 | 0.4 ± 0.5 | 0.8 ± 0.2 | -0.6 ± 0.9 | 3.5 ± 2.6 | -0.6 ± 3.1 | 1.5 | 3.5 ± 2.6 | -0.6 ± 3.1 | irreversible UGT1A9 inhibitor | 8.7 ± 1.4 | 15.3 ± 3.8 |  |  |  |  |  | COc1cc(O)c2c(c1)OC(c1ccc(O)cc1)CC2=O (racemic) [SKN, (+/−) 7-O-methylnaringenin]
2 |  |  |  |  |  |  |  |  |  |  |  |  | 15.9 ± 1.8 | 15.7 ± 2.9 | 5.6 ± 3.6 | 2.9 ± 0.8 | 13.7 ± 3.8 | O=C1C[C@@H](c2ccc(O)c(O)c2)Oc2cc(O)cc(O)c21 [Eriodictyol, 3′-hydroxynaringenin]
3 |  |  |  |  |  |  |  |  |  |  |  |  |  | 2 ± 0.9 | 11.9 ± 1.4 | 2 ± 2.1 | 9.6 ± 3.1 | O=C1C[C@@H](c2ccc(O)cc2)Oc2cc(O)cc(O)c21 [Naringenin]
